From patent EP0121013A1, “Oral compositions” (UNILEVER PLC, priority 1983, dated 1984)

Legend:
Lactobacillus casei = test: Inhibition of bacterial growth (optical density after 24 hours); type: cell-based; settings: L.casei; for IC50: 24 hours at 37°C, means of triplicate experiments, read-out: ID/50 (the source's name); for ID/50: recalculated as ppm F, 1440 min
Description: (§1) Cariogenic Bacteria used for testing the effect of Sn(^NH4)2F6 were Streptococcus mutans (strains coded 6715 and OMZ-176), Streptococcus sanguis (strains coded 10556 and 10557), Streptococcus salivarius (strains coded SS4 and H257), and Lactobacillus casei. All of the above organisms were maintained as lyophilised cultures until the time for use.
(§2) It is generally agreed that oral bacteria are responsible for tooth decay. Therefore, a reduction of the cariogenic flora usually results in a decrease in caries formation. The inhibitory action of the test compounds was. determined by adding each salt, at known concentrations, to a culture of cariogenic bacteria. After 24 hours at 37°C bacterial growth was monitored as a change in optical density. A dose response curve (concentration of salt vs. growth) for each compound against each bacterial isolate was plotted in order to obtain the concentration of test agent which would cause a 50% inhibition in growth (ID/50). This is a useful ranking index since it is not always possible to obtain complete inhibition with weak germicidal agents. Only those compounds which were able to elicit an ID/50 response were considered as inhibitory agents.
(§3) The medium used for bacterial growth experiments was Trypticase Soy Broth (B.B.L.: Baltimore Biological Labs., Baltimore, MD) supplemented with 0.1% Tween 80 (the word Tween is a trade mark) and 0.05% sodium thioglycollate. The test organisms, as lyophilised cells, were grown overnight in 50 mls of growth medium in a vacuum desiccator with an atmosphere of 97% CO /3% H2 at 35°C. These cultures were then used at a 0.2% inoculum to prepare second stage seed flasks. The test media (10ml) consisting of growth medium plus the potential inhibitors, contained in 16 x 120 mm screw top test tubes, were inoculated with the second stage seed cultures to given an absorbancy reading of 0.05. Immediately after inoculation the cultures were incubated for 24 hours under anaerobic conditions.
(§4) The growth medium was sterilised by autoclaving, whereas the potential inhibitors (as aqueous solutions) were sterilised by filtering each solution separately through a Millipore membrane (0.22 /u).
(§5) Absorbance at 600 nm versus a medium control was used as a measure of growth on a Beckman Model B spectrophotometer. All absorbancy readings were determined in 16 mm x 120 mm Kimax test tubes. This instrument was linear to 0.60 OD units; thus, all cultures displaying values above this range were diluted with the control, accordingly.

[1] = test system: Streptococcus salivarius H257; test: as above; type: cell-based; settings: S.salivarius H-257; for IC50: 24 hours at 37°C, means of triplicate experiments, read-out: ID/50 (the source's name); for ID/50: recalculated as ppm F, 1440 min
Description: as §1, §2, §3, §4, §5

[2] = test system: Streptococcus salivarius SS4; test: as above; type: cell-based; settings: S.salivarius SS4; for IC50: 24 hours at 37°C, means of triplicate experiments, read-out: ID/50 (the source's name); for ID/50: recalculated as ppm F, 1440 min
Description: as §1, §2, §3, §4, §5

[3] = test system: Streptococcus mutans 6715; test: as above; type: cell-based; settings: S.mutans 6715; recalculated as ppm F; 1440 min
Description: as §1, §2, §3, §4, §5

[4] = test system: Streptococcus mutans OMZ-176; test: as above; type: cell-based; settings: S.mutans OMZ-176; for IC50: 24 hours at 37°C, means of triplicate experiments, read-out: ID/50 (the source's name); for ID/50: recalculated as ppm F, 1440 min
Description: as §1, §2, §3, §4, §5

[5] = test system: Streptococcus sanguis 10556; test: as above; type: cell-based; settings: S.sanguis 10556; for IC50: 24 hours at 37°C, means of triplicate experiments, read-out: ID/50 (the source's name); for ID/50: recalculated as ppm F, 1440 min
Description: as §1, §2, §3, §4, §5

[6] = test system: Streptococcus sanguis 10557; test: as above; type: cell-based; settings: S.sanguis 10557; for IC50: 24 hours at 37°C, means of triplicate experiments, read-out: ID/50 (the source's name); for ID/50: recalculated as ppm F, 1440 min
Description: as §1, §2, §3, §4, §5

pH of aqueous solution = type: physicochemical
Description: An aqueous solution of Sn(NH4)2F6 has a ^pH of about 3.8 as compared to a pH of 3.0 for SnF2. This higher pH characteristic eliminates some of the formulation problems encountered with the strong acid effect of SnF2. The preferred pH of oral compositions containing ^Sn(NH4)2F6 is from 3.5 to 8.0. A 1000 ppm F^- solution of Sn(NH4)2F6 was stable.

[7] = Stability of aqueous solution on standing (haze / turbidity); type: physicochemical; settings: 1000 ppm F- solution of Sn(NH4)2F6 on standing several weeks; SnF2 solution after 24 hours at room temperature
[8] = Ionisation: release of available F; type: physicochemical
Description: The corresponding values for Na2SnF6 are 73% and 38%, respectively. Thus Na2SnF6 is less ionised than Sn(NH4)2F6.

[9] = applied topically to the teeth; Caries Res. 3, 315-325, 1969; cited from earlier work
[10] = concentration equivalent to 1000 ppm
[11] = concentration equivalent to 2500 ppm

SMILES	IC50 (Lactobacillus casei) [µM]	ID/50 (Lactobacillus casei) [ppm F]	IC50 [1] [µM]	ID/50 [1] [ppm F]	IC50 [2] [µM]	ID/50 [2] [ppm F]	ID/50 [3] [ppm F]	IC50 [4] [µM]	ID/50 [4] [ppm F]	IC50 [5] [µM]	ID/50 [5] [ppm F]	IC50 [6] [µM]	ID/50 [6] [ppm F]	pH (pH of aqueous solution)	stability of solution [7]	released available F [8, 10]	released available F [8, 11]	caries inhibiting effect [9]
N.N.[F-].[F-].[F-].[F-].[F-].[F-].[Sn] [Sn(NH4)2F6, stannic ammonium fluoride]	2530	288	400	46	1650	188	137	1430	163	220	25	390	45	about 3.8	stable	the same ionisation values as SnF2	the same ionisation values as SnF2	–
[F-].[F-].[F-].[F-].[F-].[F-].[Na+].[Na+].[Sn+4] [Na2SnF6, sodium hexafluorostannate]	–	–	–	–	–	–	–	–	–	–	–	–	–	–	–	73%	38%	has a caries inhibiting effect
[Cl][Sn][Cl] [SnCl2]	3000 to 6000	–	–	–	–	–	–	–	–	–	–	–	–	–	–	–	–	–
[F-].[Na+] [NaF]	> 12000	352	3770	72	13400	255	138	16300	309	1180	22	1820	35	–	–	–	–	–
[F][Sn][F] [SnF2]	2970	113	740	29	2450	93	56	2280	87	440	17	840	32	3.0	developed turbidity	80%	45%	–
